Measured values reported in patent US20160193211A1, “COMBINATIONS OF A BTK INHIBITOR AND FLUOROURACIL FOR TREATING CANCERS” (priority 2013, published 2016).

Experiments:
HCT116 xenografts = assay: In vivo treatment of drug-sensitive xenografts; conditions: for average volume of the tumor masses: after 28 days; for average volume of the tumor masses / significance of difference in tumor size vs vehicle-treated (untreated) group: 5FU 60 mpk
HCT116p53KO xenografts = assay: In vivo treatment of drug-resistant xenografts; conditions: for average volume of the tumor masses: after 28 days, ibrutinib 25 mpk oral gavage once a day 5 days a week, 5FU 60 mg/kg i.p. twice a week
HCT116 cells = assay: Photographs of cells at 72 hours of incubation (FIG. 5b); conditions: 10 μM 5FU or 20 μM ibrutinib
[1] = test system: HCT116 overexpressing p65BTK (HCT116p65BTK); conditions: 200 μM 5FU, 72 hours
[2] = test system: HCT116p53KO, SW480, DLD-1 and HCT116 colon carcinoma cell lines; assay: In vitro cell proliferation assay (short term, CellTiter 96 AQueous); assay type: cell-based; conditions: ibrutinib 0 to 10 μM, up to 72 h
[3] = test system: HCT116p53KO, SW480, HT-29, HCT116 and RKO colon carcinoma cell lines; assay: Cell viability, calcein assay, ibrutinib alone (FIG. 15); assay type: cell-based; conditions: 72 hs
SW480 colon cancer cells = assay: Cell viability, calcein assay (FIG. 6); assay type: cell-based; conditions: ibrutinib 20 μM with 5FU 200 μM or oxaliplatin 20 μM; oxaliplatin 20 μM alone; 72 hs
Protocol: At the end of the treatment cell viability was evaluated by calcein assay.

SMILES: O=c1[nH]cc(F)c(=O)[nH]1 [5FU, 5-fluoro-1H,3H-pyrimidine-2,4-dione]
- average volume of the tumor masses (HCT116 xenografts; ibrutinib 25 mpk): ≈ 226 mm^3
- average volume of the tumor masses (HCT116 xenografts; ibrutinib 50 mpk): ≈ 226 mm^3
- significance of difference in tumor size vs vehicle-treated (untreated) group (HCT116 xenografts; ibrutinib 25 mpk): significant
- percentage of proliferating (Ki67-positive) cells compared to vehicle or ibrutinib alone (HCT116 xenografts; ibrutinib 25 mpk, 5FU 60 mpk (FIG. 12b)): significantly reduces the percentage of proliferating cells
- significance of difference in tumor size vs vehicle-treated (untreated) group (HCT116 xenografts; ibrutinib 50 mpk): significant
- percentage of proliferating (Ki67-positive) cells compared to vehicle or ibrutinib alone (HCT116 xenografts; ibrutinib 50 mpk, 5FU 60 mpk (FIG. 13b)): significantly reduces the percentage of proliferating cells
- average volume of the tumor masses (HCT116p53KO xenografts): ≈ 530 mm^3
- significance of reduction in tumor volume vs the untreated group (HCT116p53KO xenografts; ibrutinib 25 mpk, 5FU 60 mpk, end of treatment (FIG. 9b)): not significant
- toxicity seen in photographs, drugs used singularly (HCT116 cells): no toxicity is evident
- viability: response to the cytotoxic effect of 5FU [1]: become resistant to the cytotoxic effect of 5FU

SMILES: C=CC(=O)N1CCC[C@@H](n2nc(-c3ccc(Oc4ccccc4)cc3)c3c(N)ncnc32)C1 [ibrutinib, 1-[(3R)-3-[4-amino-3-(4-phenoxyphenyl)pyrazolo[3,4-d]pyrimidin-1-yl]piperidin-1-yl]prop-2-en-1-one]
- average volume of the tumor masses (HCT116 xenografts; ibrutinib 25 mpk): ≈ 347 mm^3
- average volume of the tumor masses (HCT116 xenografts; ibrutinib 50 mpk): ≈ 372 mm^3
- significance of difference in tumor size vs vehicle-treated (untreated) group (HCT116 xenografts; ibrutinib 25 mpk): not statistically significant
- significance of difference in tumor size vs vehicle-treated (untreated) group (HCT116 xenografts; ibrutinib 50 mpk): not statistically significant
- growth-reducing and anti-proliferative effect on sensitive xenografts (HCT116 xenografts; ibrutinib alone, 25 or 50 mpk): by itself is ineffective in these kind of tumors
- average volume of the tumor masses (HCT116p53KO xenografts): ≈ 760 mm^3
- anti-tumoral effect (tumor volume vs untreated group) (HCT116p53KO xenografts; ibrutinib 50 mpk alone (FIG. 10b)): has an anti-tumoral effect on its own
- capacity of the cells to proliferate [2]: does not alter the capacity of the cells to proliferate
- toxicity by cell type ([3]; highest concentration of ibrutinib (range 0 to 30 μM)): preferentially toxic for 5FU drug-resistant, p53-null
- viability ([3]; ibrutinib up to 20 μM, all cell lines): decreases the viability in a dose-dependent manner
- toxicity seen in photographs, drugs used singularly (HCT116 cells): no toxicity is evident

SMILES: O=C(O)C(=O)O.[NH-][C@@H]1CCCC[C@H]1[NH-].[Pt+2] [oxaliplatin]
- reversion of drug resistance (viability) (SW480 colon cancer cells): Reversion of resistance was not obtained
